In US9763894B2, “Inflammation therapy” (Virginia Commonwealth University, priority 2006, dated 2017):
“Also recorded” adds a separate entry of the source.

Legend:
CB1 receptor = target: T1, CB1 receptor (Rattus norvegicus, UniProt P20272); conditions: reported previously (Wiley et al. 2002); read-out: affinity for CB1 cannabinoid receptor; cited from earlier work
T1 construct: from tissue; host or cells: rat brain membranes

human CB2 receptor [1] = target: T2, human CB2 receptor (Homo sapiens, UniProt P34972); experiment: 35S-GTPγS binding, CHO cells expressing human CB2 receptor; assay type: biochemical
T2 construct: expressed in transfected cells
Experimental: (§1) (Martin et al. 2002; Wiley et al. 2002) CB1 and CB2 receptor affinities were determined using ^3H-CP 55,940 binding to rat brain membranes and to Chinese Hamster Ovary (CHO) cells stably expressing the human CB2 receptor, respectively. In vitro functional activity was determined in these same preparations using ^35S-GTPγS binding. For in vivo behavioural effects, mice were injected intravenously with the drugs prepared in ethanol:emulphor:saline (1:1:18). The mice were evaluated for locomotor activity, analgesia, body temperature, and catalepsy. These behaviours are collectively referred to as the tetrad test and are indicative of CB1 receptor activity.

C57BL/6 mice [2] = experiment: Leukocyte/endothelial interactions by intravital microscopy through a cranial window in MCAO/R; assay type: in vivo, mouse; conditions: treatment 1 hour before MCAO
Experimental: On the day of cranial window implantation, the animals were anesthetized with an intraperitoneal injection of Ketamine (100 mg/ml)-Xylazine (20 mg/kg) mixture (1:1) at a dose of 1 ml/kg. The head was shaved and positioned in a stereotactic head holder. A 1 cm^2 area of skin on the dorsal surface of the skull over the right cortical hemisphere was excised and the periosteum was removed. A 4 mm diameter circular craniotomy was performed using a high speed drill (Champ-Air Dental Drill Benco Dental) over the right parietal cortex extending from attachment of the temporal muscle to midpoint of sagittal suture in the coronal direction and aligned to middle of the sagittal suture, so that the window contained some terminal branches of the middle cerebral artery. Normal saline was dripped over the cranium to avoid thermal injury of the cortex. […]
Leukocyte/endothelial interactions were evaluated before MCAO, 1 hour after MCAO and 24 hours after MCAO. […] Three venules (with diameter 30-50 μm) and three arterioles (with diameter 20-40 μm) in each animal were assessed. […] They were counted when they passed an arbitrary line perpendicular to the longitudinal axis of the vessel over a period of 30 seconds. […] Adhering leukocytes were scored as the number of cells per mm^2 of the vascular surface area, calculated from the diameter and standardized length (100 μm) of the vessel segment under investigation.

mice [3] = experiment: Tetrad test (locomotor activity, analgesia, body temperature, catalepsy), indicative of CB1 receptor activity; assay type: in vivo, mouse; conditions: i.v., doses up to 30 mg/kg
Experimental: The cerebral ischemia/reperfusion studies were carried out on 8 week old male C57BL/6 mice (weighing 23 to 27 g; Taconic N.Y.) and conducted in accordance with the guidelines approved by Institute for Animal Care and Use Committee at Temple University. The behavioural evaluation of the cannabinoid analogs was carried out in 8-week old ICR male mice weighing 23-27 g in accordance with the guidelines approved by the Institute for Animal Care and Use Committee at Virginia Commonwealth University.
as §1

C57BL/6 mice [4] = experiment: Neurological evaluation (five-point deficit score) after MCAO/R; assay type: in vivo, mouse; conditions: 24 hours post-ischemia
Experimental: The animals were anesthetized with an intraperitoneal injection of Ketamine ([…])-Xylazine (20 mg/kg) mixture (1:1) at a dose of 1 ml/kg. Body temperature was maintained at […]° C. by a heating lamp and heating pad. Middle cerebral artery occlusion was achieved by the intraluminal filament methods. (Hata et al. 1998) Briefly, a midline neck incision was made under the operation microscope; the right common carotid artery (CCA), external carotid artery (ECA) and internal carotid artery (ICA) were isolated. The ECA was ligated with 6-0 silk suture distal from the ICA-ECA branch and then cut distal from ligated point. Another 6-0 silk suture was tied loosely around ECA at close to the origin at the CCA. A blunted 5-0 monofilament nylon suture coated with poly-L-lysine (0.1% in deionized water, Sigma) (Belayev et al. 1999) was introduced from a small incision on ECA and then advanced into the circle of Willis, and finally to the origin of the middle cerebral artery. […]
The severity of neurological deficits was evaluated 24 hours after ischemic insult using a five-point deficit score (0=normal motor function; 1=flexion of torso and of contralateral forelimb upon lifting of the animal by tail; 2=circling to the contralateral side but normal posture at rest; 3=leaning to contralateral side at rest; and 4=no spontaneous motor activity) (Hata et al. 1998).

C57BL/6 mice [5] = experiment: Thoracic spinal cord injury (SCI) model; assay type: in vivo, mouse
Experimental: A thoracic spinal cord injury model was induced in female 6-8 week old C57BL/6 mice. Spinal cord CB2 mRNA expression was evaluated in sham animals and SCI animals 24 hours after injury by real time RT-PCR. Animals were randomized into two groups: the experimental group received intraperitoneal injections of a selective CB2 agonist (O-1966; 1 mg/kg) one hour before injury, 24 and 48 hours after injury; the control group received equal volumes of vehicle. Both groups were tested for motor function by using the Basso Mouse Scale for Locomotion (BMS) and the Basso, Beattie, Bresnahan Locomotor Rating Scale (BBB) on post-procedure days 1, 7, and 14. Urine mass was recorded twice daily to assess bladder recovery. The inflammatory cytokine TNF-α was measured by real time RT-PCR in both groups 24 hours after SCI.

human CB2 receptor [6] = target: T2, human CB2 receptor; conditions: reported previously (Wiley et al. 2002); read-out: affinity for CB2 cannabinoid receptor; cited from earlier work
C57BL/6 mice [7] = experiment: Regional cerebral blood flow (rCBF) during MCAO; assay type: in vivo, mouse; conditions: 1 mg/kg, 1 hour prior to occlusion, versus vehicle
Experimental: (§2) The animals were anesthetized with an intraperitoneal injection of Ketamine ([…])-Xylazine (20 mg/kg) mixture (1:1) at a dose of 1 ml/kg. Body temperature was maintained at […]° C. by a heating lamp and heating pad. Middle cerebral artery occlusion was achieved by the intraluminal filament methods. (Hata et al. 1998) Briefly, a midline neck incision was made under the operation microscope; the right common carotid artery (CCA), external carotid artery (ECA) and internal carotid artery (ICA) were isolated. The ECA was ligated with 6-0 silk suture distal from the ICA-ECA branch and then cut distal from ligated point. Another 6-0 silk suture was tied loosely around ECA at close to the origin at the CCA. A blunted 5-0 monofilament nylon suture coated with poly-L-lysine (0.1% in deionized water, Sigma) (Belayev et al. 1999) was introduced from a small incision on ECA and then advanced into the circle of Willis, and finally to the origin of the middle cerebral artery. The silk suture around the ECA stump was tied tightly to prevent bleeding and secure the nylon suture. The nylon suture was removed after 60 minutes occlusion and ECA was permanently tied. Reperfusion was confirmed when pulsations were again observed in ICA.
A laserPro Blood Perfusion Monitor (TSI Inc) was used to monitor regional cerebral blood flow (rCBF) prior to ischemia, during MCAO and reperfusion. […]

C57BL/6 mice [8] = experiment: Infarct volume after middle cerebral artery occlusion and reperfusion (MCAO/R); assay type: in vivo, mouse; conditions: 24 hours after MCAO
Experimental: as §2
The CB2 agonists (O-1966 and O-3853: described in Wiley et al and WO 03/091189, incorporated herein by reference, and the copending application of Razdan et al)) were dissolved in a pure ethanol:emulphor:saline mixed solution at 1:1:18. The CB2 agonists (1 mg/kg) or equal volume of vehicle were administered as an intravenous injection into the jugular vein 1 hour before MCAO or 10 minutes after reperfusion. The investigator was blinded with regard to whether the animals were members of vehicle or treatment groups during all experimental procedures and measurements.
Animals were euthanized with an overdose of pentobarbital (200 mg/kg i.p) 24 hours after MCAO and then the brains were removed. The brains were chilled in ice for 10 minutes to slightly harden the tissue. Five 2 mm coronal sections were cut using a mouse brain matrix (Zivic lab).The brain sections were placed in 2% triphenyltetrazolium chloride (TTC) (Sigma, Inc) dissolved in saline and stained for 20 minutes at 37° C. in the dark. The brain sections were then fixed in 4% paraformaldehyde at 4° C. for 24 hours and the anterior and caudal face of each section was scanned by a flatbed color scanner (Microtek Inc). The resulting images were captured as JPEG files (FIG. 2E) and analyzed with NIH image software. The infarct volumes were expressed as mm^3 as well as the percentage of the ipsilateral hemisphere.

mice [9] = conditions: reference CB1/CB2 agonist, all four measures; cited from earlier work
[10] = 1 mg/kg i.v. 10 minutes after reperfusion (post-reperfusion treatment)
[11] = 1 mg/kg i.v. 1 hour before MCAO (pre-ischemic treatment)

T2 sequence (P34972 whole entry): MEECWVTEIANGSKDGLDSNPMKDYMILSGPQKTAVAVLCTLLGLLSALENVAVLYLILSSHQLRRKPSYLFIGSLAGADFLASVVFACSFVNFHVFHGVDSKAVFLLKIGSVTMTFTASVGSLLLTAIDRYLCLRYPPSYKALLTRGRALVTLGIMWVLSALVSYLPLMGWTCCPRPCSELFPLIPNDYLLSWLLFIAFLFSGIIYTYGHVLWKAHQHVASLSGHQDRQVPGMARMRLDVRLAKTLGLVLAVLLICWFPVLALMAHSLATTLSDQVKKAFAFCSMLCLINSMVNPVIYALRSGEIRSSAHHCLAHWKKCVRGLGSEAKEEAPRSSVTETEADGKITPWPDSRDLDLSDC
T1 sequence (P20272 whole entry): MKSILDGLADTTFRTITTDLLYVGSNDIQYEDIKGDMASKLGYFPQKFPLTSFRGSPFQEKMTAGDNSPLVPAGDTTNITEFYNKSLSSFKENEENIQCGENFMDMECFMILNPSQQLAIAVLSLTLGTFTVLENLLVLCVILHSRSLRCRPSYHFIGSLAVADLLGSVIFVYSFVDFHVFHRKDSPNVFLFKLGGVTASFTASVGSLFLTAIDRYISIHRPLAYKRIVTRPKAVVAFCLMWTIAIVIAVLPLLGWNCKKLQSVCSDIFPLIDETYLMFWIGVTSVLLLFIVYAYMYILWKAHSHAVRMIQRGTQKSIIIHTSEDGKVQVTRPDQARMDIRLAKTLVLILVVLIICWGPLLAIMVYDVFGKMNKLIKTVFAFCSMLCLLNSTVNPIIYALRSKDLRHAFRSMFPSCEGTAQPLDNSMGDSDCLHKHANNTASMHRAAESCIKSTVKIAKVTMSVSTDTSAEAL

Row | Compound | Ki (CB1 receptor) | EC50 (human CB2 receptor [1]; CHO cells with human CB2, read-out: EC50 for stimulating 35S-GTPγS binding (CB2)) | Emax (human CB2 receptor [1]; percent of maximal stimulation produced by the full agonist CP 55,940) | leukocyte/endothelial interactions (C57BL/6 mice [2]) | effects in the tetrad test (CB1 receptor-mediated behavioural effects) (mice [3]) | motor function score (C57BL/6 mice [4]; pretreatment 1 hour before MCAO, vehicle 3.25±0.20) | motor function (C57BL/6 mice [4]; treatment during reperfusion) | motor function recovery (BMS and BBB) (C57BL/6 mice [5]; 1 mg/kg i.p. one hour before, 24 and 48 hours after injury, days 1, 7 and 14) | bladder function recovery rate (C57BL/6 mice [5]; 1 mg/kg i.p., 14th day after SCI, control group 14%) | TNF-α expression in the injured spinal cord (C57BL/6 mice [5]; real time RT-PCR, 24 hours after SCI, compared to control group) | Ki (human CB2 receptor [6]) | effect on rCBF during the 1 hour occlusion period (C57BL/6 mice [7]) | infarct volume (C57BL/6 mice [8]; [10]) | infarct volume as percentage of the ipsilateral hemisphere (C57BL/6 mice [8]; [10]) | infarct volume (C57BL/6 mice [8]; [11]) | infarct volume as percentage of the ipsilateral hemisphere (C57BL/6 mice [8]; [11]) | ED50's in the four tetrad measures (mice [9])
1 | CCCCCCC(C)(C)c1cc(OC)c(C2(O)CCCC(C)C2)c(OC)c1 (centres unmarked) [O-1966] | 5060 nM | 70 ± 14 nM | 74 ± 5% | attenuated leukocyte/endothelial interactions | produced some modest behavioural effects only at doses that far exceeded those used in the MCAO/R studies; also recorded: failed to produce effects in the tetrad test | 1.69±0.30 | significantly improved the motor function | better motor function recovery than the control group | 45% | decreased TNF-α expression | 23 ± 2.1 nM | no effect on rCBF | 71.3±5.5 mm^3 | 27±2% | 65.6±4.0 mm^3 | 25±2.5% | 
2 | CCCCCc1cc(O)c2c(c1)OC(C)(C)[C@@H]1CCC(C)=C[C@@H]21 [Δ^9-tetrahydrocannabinol] |  |  |  |  |  |  |  |  |  |  |  |  |  |  |  |  | 1 to 2 mg/kg
